One data set deals with hERG K+ channel (Homo sapiens, UniProt Q12809). As to the kind of experiment: whole-cell patch clamp of hERG. It counts as cell-based. A general note: The patch-clamp technique gives a direct electrical read-out from membranes.
The next data set has as its target hERG K+ channel (IKr) (Homo sapiens, UniProt Q12809). In words: whole-cell patch clamp of hERG. The format is cell-based. Particulars: human, HEK293 cells transiently transfected with hERG, pH 7.4.
Another data set addresses KCNQ1/KCNE1 (IKs) (Homo sapiens, UniProt P51787). As to the kind of experiment: whole-cell patch clamp of IKs in KCNQ1/KCNE1-cotransfected HEK293 cells. It counts as cell-based.
Another data set concerns the target T1, KCNJ2 (IK1) (Homo sapiens, UniProt P63252).
T1 sequence (P63252 1-427): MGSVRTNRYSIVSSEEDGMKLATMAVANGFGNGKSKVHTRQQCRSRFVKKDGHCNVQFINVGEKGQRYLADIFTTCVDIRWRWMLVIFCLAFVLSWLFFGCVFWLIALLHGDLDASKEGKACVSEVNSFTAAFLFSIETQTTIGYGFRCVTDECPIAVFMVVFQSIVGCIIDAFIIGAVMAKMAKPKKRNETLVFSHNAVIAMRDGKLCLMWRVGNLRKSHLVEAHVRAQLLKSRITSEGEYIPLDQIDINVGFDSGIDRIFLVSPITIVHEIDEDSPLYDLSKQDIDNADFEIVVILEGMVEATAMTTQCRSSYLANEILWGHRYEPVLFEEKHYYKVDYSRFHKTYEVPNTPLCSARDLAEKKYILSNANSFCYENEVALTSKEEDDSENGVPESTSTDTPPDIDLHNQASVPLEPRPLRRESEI
As to the kind of experiment: whole-cell patch clamp of IK1 in KCNJ2-transfected HEK293 cells. It counts as cell-based.

Data set [1] deals with ECG intervals (RR, PR, QRS, QT). Particulars: adult outpatient population (n=1,048); cited from earlier work.
Data set [2] relates to isolated guinea-pig atria. Particulars: spontaneously beating isolated guinea-pig atria; cited from earlier work.

Read-outs that look alike come from different tables or passages of the source.

Sequence of KCNQ1/KCNE1 (IKs) (P51787 whole entry): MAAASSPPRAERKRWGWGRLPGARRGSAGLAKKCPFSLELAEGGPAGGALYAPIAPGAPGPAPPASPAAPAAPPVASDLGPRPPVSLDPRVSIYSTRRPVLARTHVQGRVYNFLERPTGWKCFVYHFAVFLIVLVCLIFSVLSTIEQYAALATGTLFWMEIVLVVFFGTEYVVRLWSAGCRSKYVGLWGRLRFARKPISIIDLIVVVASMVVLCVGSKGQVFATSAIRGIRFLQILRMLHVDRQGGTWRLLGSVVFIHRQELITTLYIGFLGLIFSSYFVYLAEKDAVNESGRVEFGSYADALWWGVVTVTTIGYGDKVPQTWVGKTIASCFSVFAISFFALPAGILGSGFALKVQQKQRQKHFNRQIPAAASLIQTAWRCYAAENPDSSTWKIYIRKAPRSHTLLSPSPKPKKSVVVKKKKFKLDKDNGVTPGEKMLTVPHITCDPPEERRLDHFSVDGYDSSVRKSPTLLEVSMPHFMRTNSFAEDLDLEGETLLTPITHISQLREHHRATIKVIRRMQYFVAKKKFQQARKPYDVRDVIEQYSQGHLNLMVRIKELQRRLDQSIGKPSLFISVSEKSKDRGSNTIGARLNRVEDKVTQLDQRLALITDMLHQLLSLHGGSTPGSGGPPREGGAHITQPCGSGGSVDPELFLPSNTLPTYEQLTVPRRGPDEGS
Sequence of hERG K+ channel (IKr) (Q12809 whole entry): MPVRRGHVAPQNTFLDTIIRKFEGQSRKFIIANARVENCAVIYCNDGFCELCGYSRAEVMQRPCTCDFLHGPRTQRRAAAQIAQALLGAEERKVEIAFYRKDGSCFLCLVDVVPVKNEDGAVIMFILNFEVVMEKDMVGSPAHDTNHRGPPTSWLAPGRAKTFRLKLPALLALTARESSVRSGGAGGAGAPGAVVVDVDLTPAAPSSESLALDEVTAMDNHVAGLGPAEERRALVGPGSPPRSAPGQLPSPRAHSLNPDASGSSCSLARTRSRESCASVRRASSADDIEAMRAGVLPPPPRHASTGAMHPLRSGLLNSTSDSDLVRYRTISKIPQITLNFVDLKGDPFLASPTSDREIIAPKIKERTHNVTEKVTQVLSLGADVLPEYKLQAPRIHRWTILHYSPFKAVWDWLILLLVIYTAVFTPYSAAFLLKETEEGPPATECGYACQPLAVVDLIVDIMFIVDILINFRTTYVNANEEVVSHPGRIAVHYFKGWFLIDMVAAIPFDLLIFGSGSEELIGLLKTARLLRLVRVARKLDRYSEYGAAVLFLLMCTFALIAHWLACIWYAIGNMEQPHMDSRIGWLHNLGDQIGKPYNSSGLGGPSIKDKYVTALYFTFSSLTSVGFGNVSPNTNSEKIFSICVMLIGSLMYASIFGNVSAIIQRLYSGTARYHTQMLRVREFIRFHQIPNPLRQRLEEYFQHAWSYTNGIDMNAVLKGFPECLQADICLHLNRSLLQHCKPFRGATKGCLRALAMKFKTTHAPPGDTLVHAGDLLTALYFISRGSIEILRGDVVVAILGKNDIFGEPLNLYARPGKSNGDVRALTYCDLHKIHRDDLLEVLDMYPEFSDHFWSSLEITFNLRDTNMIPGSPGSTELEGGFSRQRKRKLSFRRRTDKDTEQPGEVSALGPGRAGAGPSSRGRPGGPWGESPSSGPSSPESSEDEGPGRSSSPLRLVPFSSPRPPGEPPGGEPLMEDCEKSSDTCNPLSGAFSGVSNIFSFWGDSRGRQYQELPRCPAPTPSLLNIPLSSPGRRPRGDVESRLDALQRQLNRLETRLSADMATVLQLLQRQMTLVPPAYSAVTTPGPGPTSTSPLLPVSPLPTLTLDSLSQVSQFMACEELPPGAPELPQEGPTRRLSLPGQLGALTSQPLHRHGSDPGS
Sequence of hERG K+ channel (Q12809 whole entry): as above

A word on the IC50: it is the midpoint of a concentration-inhibition curve. Low values mean greater potency, high ones weaker potency. Usually inhibition stands for the drop in the measured response relative to a control, in per cent. Take `CN[C@H]1CC[C@@H](c2ccc(Cl)c(Cl)c2)c2ccccc21` [Sertraline]: the 50% inhibitory concentration (IC50) on hERG K+ channel was determined as 0.7 µM; against KCNQ1/KCNE1 (IKs), 12.3 ± 1.3 µM; against KCNQ1/KCNE1 (IKs) (human, HEK293 cells transiently cotransfected with KCNQ1/KCNE1, pH 7.4) it was 15.2 µM; on KCNJ2 (IK1), 10.5 µM. Further, on hERG K+ channel (HEK293 cells, Hill fit, n=4), the “Hill coefficient, hERG current inhibition” value is 1.3±0.02. At hERG K+ channel (IKr), this molecule gave an inhibition at 1 µM of 7.9 ± 1.9%. At hERG K+ channel (IKr), this molecule displayed an inhibition at 3 µM of 24.2 ± 1.9%. The molecule further returned an inhibition at 10 µM at hERG K+ channel (IKr) of 60.1 ± 2.7%. This molecule also yielded an inhibition at 30 µM on hERG K+ channel (IKr) of 86.4 ± 1.4%. Besides, the “reduction of IKs amplitude” value at KCNQ1/KCNE1 (IKs) (1 µM sertraline, n=4) was 1.5±3.8%; on KCNQ1/KCNE1 (IKs) (3 µM sertraline, n=4), 10.3±2.5%; at KCNQ1/KCNE1 (IKs) (10 µM sertraline, n=4) it was 36.6±3.5%; on KCNQ1/KCNE1 (IKs) (30 µM sertraline, n=4), 84.0±5.6%. The “Hill coefficient, IKs inhibition” value at KCNQ1/KCNE1 (IKs) (KCNQ1/KCNE1 HEK293 cells, n=4) was found to be 2.5±0.1. The “reduction of IK1 amplitude” value is 0.7±2.7% at KCNJ2 (IK1) (1 µM sertraline, n=4); 9.4±1.1% on KCNJ2 (IK1) (3 µM sertraline, n=4); 45.7±3.9% on KCNJ2 (IK1) (10 µM sertraline, n=4); 92.5± 1.2% at KCNJ2 (IK1) (30 µM sertraline, n=4). On KCNJ2 (IK1) (KCNJ2 HEK293 cells, n=4), the “Hill coefficient, IK1 inhibition” value was 2.1±0.2. Further, in data set [1], the “effect on RR, PR, QRS, and QT intervals” value is recorded as “no significant effect”. Further, in data set [2], the “effect on rate of contractions and contractile force” value was “dose-dependent decrease in the rate contractions and in the contractile force”.

The record behind these values is PMC3484517 (The Korean Journal of Physiology & Pharmacology : Official …, 2012).
